Patent US20090186361A1, “METHODS OF PREDICTING THE PHARMACEUTICAL TOXICITY OF TAXANES” (priority 2008, published 2009)

System: CYP2C8 gene locus
Test: Regression of Toxicity Index on CYP2C8 SNP genotype of recipient subjects
Assay type: in vivo, human
Text: The […] ™ Genotyping System features a protocol with three steps. The technology is based on single-based primer extension technology. […] SNPWARE™ reagent kits were used.
Multiplexed reactions were spatially resolved on a SNPWARE™ Tag Array plate. Each of the 384 wells in a plate contained 16 or 52 unique oligonucleotides of a known sequence, or tag. Each tag on the plate was complementary to one of the tags of the 12 or 48 extension primers, plus four controls to ensure accuracy. After transfer to the Tag Array plate, each SNP was hybridized to its complementary tag. SNPs were then identified by their position in the well.
The process involved a multiplex PCR followed by an annealing reaction of the oligonucleotide to the specific PCR product. Next the oligonucleotide was extended by a single base which was fluorescently labeled with a terminating NTP and finally detected by two-colored fluorescence specific for the allele.
For each SNP, the -PCRU and -PCRL primers were first used to amplify a relevant DNA fragment surrounding the target SNP site. The components per reaction were: H2O, 3.0 μl; 10× PCR Buffer II, 0.5 μl; MgCl2 (25 mM), 1.0 μl; dNTPs (2.5 mM each), 0.18 μl; PCR Primer Pool (2.5 μM each), 0.1 μl; [sequence] GOLD™ (5 U/μl), 0.125 μl for a total volume of 5.0 μl per reaction.
Primer -SNPU or SNPL was then used for single-base extension reaction. The thermocycler program was as follows: Step 1: 96° C. for 3 min; Step 2: 94° C. for 20 sec; Step 3: 40° C. for 11 sec; and Step 5: return to step 2 59 times, and finally to hold at 4° C.
Thirty (30) recipient subjects already receiving treatment with paclitaxel were screened for the presence of SNPs in the CYP2C8 and TUBB loci. Clinical data from each of the recipient subjects was used to first calculate a Toxicity Index (TI) value for each individual according to the method presented in Example 1, above. The genotype for each recipient subject with regard to the SNPs of CYP2C8 and TUBB was determined using SNPWARE™ and single base extension according to the methods of Example 4, above.
A preliminary data analysis focused on the relationship between the Toxicity Index and the recipient subjects' demographic/genetic information. […] Univariate linear regression analysis was conducted first to find significant covariates in predicting the Toxicity Index in one of five cycles, then multivariable analysis was used to determine the best model in fitting the data. A mixed model for repeated measurement was implemented in modeling Toxicity Index in the first five cycles, and also in all cycles. Autoregressive covariance structure was used in the mixed model. SAS and Minitab were used in the analysis.
Covariates in the analysis included recoded binary demographic variables (sex, race, site, grade, stage) and recoded binary genetic variables.
Multivariable regression analysis was used to find the best model in predicting the Toxicity Index in each of the first five cycles.

Question: How did the “Coef, regression TI1 versus CYP2C8_2_31, TUBB2: predictor CYP2C8_2_31” value (30 recipient subjects, rs1058932, heterozygous TC vs homozygous CC, P 0.020) turn out when `CC(=O)O[C@H]1C(=O)[C@@]2(C)[C@H]([C@H](OC(=O)c3ccccc3)[C@]3(O)C[C@H](OC(=O)[C@H](O)[C@@H](NC(=O)c4ccccc4)c4ccccc4)C(C)=C1C3(C)C)[C@]1(OC(C)=O)CO[C@@H]1C[C@@H]2O` [Paclitaxel, (2aR,4S,4aS,6R,9S,11S,12S,12aR,12bS)-1,2a,3,4,4a,6,9,10,11,12,12a,12b-Dodecahydro-4,6,9,11,12,12b-hexahydroxy-4a,8,13,13-tetramethyl-7,11-methano-5H-cyclodeca(3,4)benz(1,2-b)oxet-5-one 6,12b-diacetate, 12-benzoate, 9-ester with (2R,3S)-N-benzoyl-3-phenylisoserine] was run?
Answer: −1.1100

Question: What about the “Para. Est., TI4 vs CYP2C8_1C (multivariable)” value (multivariable analysis best model, cycle 4, rs17110453, AA = 1, CA = 0, P-value 0.033) of the same compound?
Answer: −1.267

Question: What about the “Para. Est., TI1 vs CYP2C8_2_31 (multivariable)” value (multivariable regression with TUBB2, cycle 1, rs1058932, CC = 1, TC = 0, P-value 0.020) of the same compound?
Answer: −1.110

Question: What about the “Para. Est., TI1 vs CYP2C8_2_31” value (univariate linear regression, cycle 1, rs1058932, CC = 1, TC = 0, P-value 0.021) of the same compound?
Answer: −1.168

Question: And the “Para. Est., TI4 vs CYP2C8_1C” value (univariate linear regression, cycle 4, rs17110453, AA = 1, CA = 0, P-value 0.033)?
Answer: −1.267
